Columns and labels:
Vero cells = test: LDH release cytotoxicity assay; type: cell-based, African green monkey; conditions: 0-10 µM AMPs in DMEM, 3 h and 24 h, LDH release relative to 1% Triton X-100 lysis, three independent experiments, Fig. 1A+B
Experimental: Vero-mCeacam cells (Vero cells), derived from African green monkey kidney cells, were maintained in DMEM (Gibco, Thermo Fisher Scientific, Waltham, MA) supplemented with 10% FCS (Bodinco B.V., Alkmaar, The Netherlands) and 200 units/mL penicillin, and […] (P/S) (Gibco, Life Technologies Limited, Paisley, UK) at 37 °C and 5% CO2.
To assess the cytotoxicity of peptides, Vero cells were treated with AMPs (0 − 10 μM in DMEM) as outlined in paragraph 2.5. After 3 and 24 h of stimulation, the fraction of lactate dehydrogenase (LDH) released into the culture supernatant was measured using the Cyto Tox 96 nonradioactive cytotoxicity kit (Promega GmbH, Walldorf, Germany) according to the manufacturer's instructions, and expressed as a percentage of the maximum LDH release from cells, lysed by 1% Triton X-100 (Sigma-Aldrich, T8787, Darmstadt, Germany).
Fig. 1 The cytotoxicity of AMPs on Vero cells. Cells were incubated with 0 – 10 µM AMPs for either 3 h or 24 h A and B) LDH release assay, indicating cell membrane permeability after 3 and 24 h, respectively. C and D) WST assay, measuring cell metabolic activity after 3 and 24 h, respectively. ‘No peptide‘ represents cells incubated with only growth medium for the indicated times, serving as a control. P.C in the LDH assay are cells that have been lysed by the lysis buffer representing 100% release of intracellular LDH. […]

PEDV-GFP = test: Pre-incubation (pre-treatment) antiviral assay; type: cell-based, Porcine epidemic diarrhea virus; conditions: Vero cells treated 3 h with AMPs (0-10 µM), washed, then infected with PEDV-GFP MOI 0.3 for 2 h; FC; Fig. 6B, C
Experimental: The effect of AMPs on viral infectivity was also determined when they were added to Vero-cells before (pre-treatment) or after (post-treatment) infection. In the pre-treatment assay (Fig. 6A), Vero cells were treated with different concentrations of CATH-B1 and LL-37 peptides (ranging from 0 to 10 µM) for various durations (1, 2, 3, 4, and 24 h) at 37 °C. Subsequently, the cells were washed 2 times with PBS and infected with PEDV-GFP at an MOI of 0.3 for 2 h
In post-incubation assays (Fig. 7A), cells were initially exposed to the virus for 2 h, washed 2times with PBS and subsequently treated with AMPs for 3 h Both for pre- and post-infection assays, after the respective incubation periods, the cells were assessed using fluorescence microscopy and quantified using FC as described above.
Fig. 6 Effects of AMPs in pre-incubation assay. A) Experimental set-up of pre-incubation experiment. B) FC was employed to quantify the percentage of GFP-positive cells during pre-incubation. […] The reported values represent the mean ± SD derived from three independent experiments performed in triplicate. * p < 0.05; ** p < 0.01.

PEDV = test: Transmission electron microscopy of peptide-treated virus; parameters: species or system Porcine epidemic diarrhea virus; conditions: PEDV treated with 10 µM peptide, negative stain, Fig. 9
Experimental: PEDV was treated with CATH-B1, LL-37, PMAP-23, and PMAP-36 for one minute at 37 °C. Subsequently, 10 µL of the sample was placed onto a freshly carbon-coated copper grid. The grids were washed 3 times with PBS and then fixed with 1% glutaraldehyde (Sigma-Aldrich, St. Louis, MO, USA) in PBS for 10 min. Following this fixation, the grids were rinsed 2 times with PBS and 4 times with MilliQ water. They were stained for 5 min in Uranyl Acetate (pH 7) then briefly washed with methylcellulose/uranyl acetate (pH 4) and incubated for 5 min on ice. Finally, the grids were looped out of the solution and air-dried. The samples were subsequently examined in a JEM1010 (JEOL) equipped with a Veleta 2k × 2k CCD camera (EMSIS, Munster, Germany).
Fig. 9 The effect of AMPs on the morphology of the virus. PEDV (MOI=0.3), which was pre-incubated with peptides. TEM images were taken of PEDV alone (A–D), PEDV treated with 10 µM LL-37 (E-H), PEDV treated with 10 µM CATH-B1 (I-L), PEDV treated with 10 µM PMAP-23 (M, N), and PEDV treated with 10 µM PMAP-36 (O, P). […] Micrographs were captured with a pixel size of 0,5 nm and analyzed visually using ImageJ. The micrographs are representative of observations from three independent experiments. Scale bars represent 100 nm.

Which “cytotoxicity (LDH release)” value (Vero cells) does the source give for “LLGDFFRKSKEKIGKEFKRIVQRIKDFLRNLVPRTES [LL-37, human cathelicidin antimicrobial peptide, 37 residues]” here?
The value was “no toxic effects”.

What about the “antiviral activity in pre-incubation assay, in words” value (PEDV-GFP) of the same sequence?
The value was “potent inhibition of viral infection in Vero cells at all three concentrations”.

What about the “virus aggregation (TEM)” value (PEDV) of the same sequence?
Its value is “in some cases, extensive virus aggregation”.

And the “effect on virus morphology / membrane (TEM)” value (PEDV; one minute at 37 °C)?
Its value is “significant membrane disruption”.

— PMC11607671, “Antiviral activity of cathelicidins against porcine epidemic diarrhea virus (PEDV): Mechanisms, and efficacy” (Virus Research, 2024)
